Test system: heterotrophic micro-organisms
Assay: BOD analyses with increasing perchlorate concentrations (respirometric, activated sludge)
Assay type: cell-based
Details: activated sludge from a MBBR reactor; perchlorate 5 and 35 mg L^-1; data not shown
Experimental: BOD analyses : For these measurements, the range was 0 - 400 mgO2 L^-1, the BOD test solutions were composed of: 141.6 mL of a mixture of carboxylic acids: oxalic acid (625 mg L^-1), maleic acid (137 mg L^-1), glyoxylic acid (261 mg L^-1), and formic acid oxalic acid (321 mg L^-1); 10 mL of a buffer solution: KH2PO4 (8.6 g L^-1), K2HPO4 (21.75 g L^-1), (Na2HPO4,2H2O) (33.4 g L^-1), NH4Cl (1.7 g L^-1); 0.4 mL of- Allylthiourea (C4H8N2S) (1 g L^-1), and 1 mL of activated sludge from a MBBR reactor who had been previously fed with the raw MLL for 4 months, completed with 11 mL concentrate solutions of perchlorate to obtain respective concentrations in perchlorate of 5 and 35 mg L^-1 in the final 164 mL liquid volume.
BOD analyses with increasing perchlorate concentrations have been performed following a similar procedure as previously explained in the last section. […]

[O-][Cl+3]([O-])([O-])O [perchlorate]
effect on heterotrophic micro-organisms: inihibiting effect
